The source of these data is ChEMBL document CHEMBL1148710, “Alpha2-adrenoreceptors profile modulation. 3.1 (R)-(+)-m-nitrobiphenyline, a new efficient and alpha2C-subtype selective agonist” (J Med Chem, 2007).

Structures are written as SMILES. Active and inactive are the calls of the source. The calls are words filed in the database; no cut-off is given here.

The target of assay [1] is T1, Alpha-2B adrenergic receptor (Homo sapiens) (UniProt P18089).
T1 sequence (whole entry): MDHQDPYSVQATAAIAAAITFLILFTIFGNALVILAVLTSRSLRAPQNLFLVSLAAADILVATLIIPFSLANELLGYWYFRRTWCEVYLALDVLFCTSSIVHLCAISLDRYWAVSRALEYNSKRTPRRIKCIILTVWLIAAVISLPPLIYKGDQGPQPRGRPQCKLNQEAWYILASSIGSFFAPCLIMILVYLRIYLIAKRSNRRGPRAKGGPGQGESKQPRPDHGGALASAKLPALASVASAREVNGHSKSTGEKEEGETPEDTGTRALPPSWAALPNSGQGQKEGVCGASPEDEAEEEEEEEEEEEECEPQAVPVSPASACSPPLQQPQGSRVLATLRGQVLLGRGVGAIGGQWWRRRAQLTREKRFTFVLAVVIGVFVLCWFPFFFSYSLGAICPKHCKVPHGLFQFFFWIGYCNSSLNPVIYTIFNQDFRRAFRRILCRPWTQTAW
The experiment in a line: (§1) Agonistic potency at human adrenergic alpha-2B receptor expressed in CHO cells assessed as forskolin-induced cAMP accumulation. It counts as functional, cell-based.

Assay [2] has as its target T2, Alpha-2A adrenergic receptor (Homo sapiens) (UniProt P08913).
T2 sequence (whole entry): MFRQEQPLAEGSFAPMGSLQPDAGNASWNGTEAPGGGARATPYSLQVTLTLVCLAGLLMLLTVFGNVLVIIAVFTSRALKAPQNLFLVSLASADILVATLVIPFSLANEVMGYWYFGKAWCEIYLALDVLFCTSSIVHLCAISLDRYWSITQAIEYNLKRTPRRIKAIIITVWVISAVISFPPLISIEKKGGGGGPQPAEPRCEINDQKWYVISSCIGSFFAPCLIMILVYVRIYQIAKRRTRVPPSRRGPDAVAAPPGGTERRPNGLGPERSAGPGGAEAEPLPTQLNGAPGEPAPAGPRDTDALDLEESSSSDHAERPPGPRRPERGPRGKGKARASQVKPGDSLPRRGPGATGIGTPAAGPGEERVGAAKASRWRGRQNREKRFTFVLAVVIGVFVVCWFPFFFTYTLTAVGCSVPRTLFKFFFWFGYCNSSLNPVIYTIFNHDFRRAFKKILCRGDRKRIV
The experiment in a line: Intrinsic activity at human adrenergic alpha-2A receptor expressed in CHO cells assessed as forskolin-induced cAMP accumulation relative to (-)-noradrenaline. It counts as functional, cell-based.

For assay [3], the target named is T1, Alpha-2B adrenergic receptor (Homo sapiens). The experiment in a line: Intrinsic activity at human adrenergic alpha2B receptor expressed in CHO cells assessed as forskolin-induced cAMP accumulation relative to (-)- noradrenaline. Format: functional, cell-based.
Assay [4] concerns the target T3, Alpha-2C adrenergic receptor (Homo sapiens) (UniProt P18825).
T3 sequence (whole entry): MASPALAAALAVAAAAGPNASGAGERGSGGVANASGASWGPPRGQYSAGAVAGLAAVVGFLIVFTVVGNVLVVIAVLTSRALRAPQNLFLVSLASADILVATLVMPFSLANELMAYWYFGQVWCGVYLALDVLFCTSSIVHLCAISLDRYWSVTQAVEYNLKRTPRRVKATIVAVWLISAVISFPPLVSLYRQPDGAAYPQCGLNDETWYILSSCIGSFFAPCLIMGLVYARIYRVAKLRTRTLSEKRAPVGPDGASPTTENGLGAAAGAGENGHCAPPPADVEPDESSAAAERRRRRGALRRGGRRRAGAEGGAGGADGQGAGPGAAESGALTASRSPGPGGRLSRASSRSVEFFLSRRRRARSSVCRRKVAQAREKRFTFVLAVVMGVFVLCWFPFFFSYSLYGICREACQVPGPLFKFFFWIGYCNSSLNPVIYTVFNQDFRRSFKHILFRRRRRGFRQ
The experiment in a line: Intrinsic activity at human adrenergic Alpha-2C receptor expressed in CHO cells assessed as forskolin-induced cAMP accumulation relative to (-)- noradrenaline. It counts as functional, cell-based.

Assay [5] addresses T4, Alpha-2A adrenergic receptor (Homo sapiens, UniProt P08913).
T4 sequence (P08913 whole entry): T2 sequence (whole entry)
The experiment in a line: Displacement of [3H]RX 821002 from human adrenergic alpha2A receptor expressed in CHO cells. Format: cell-based.

Assay [6] deals with T5, Alpha-2B adrenergic receptor (Homo sapiens, UniProt P18089).
T5 sequence (P18089 whole entry): T1 sequence (whole entry)
The experiment in a line: Displacement of [3H]RX 821002 from human adrenergic alpha-2B receptor expressed in CHO cells. It counts as cell-based.

The target of assay [7] is T6, Alpha-2C adrenergic receptor (Homo sapiens, UniProt P18825).
T6 sequence (P18825 whole entry): T3 sequence (whole entry)
The experiment in a line: Agonistic potency at human adrenergic Alpha-2C receptor expressed in CHO cells assessed as forskolin-induced cAMP accumulation. Format: functional, cell-based.

The target in assay [8] is T1, Alpha-2B adrenergic receptor (Homo sapiens). The experiment in a line: Antagonistic potency at human adrenergic alpha-2B receptor expressed in CHO cells assessed as forskolin-induced cAMP accumulation. It counts as functional, cell-based.
The target in assay [9] is T2, Alpha-2A adrenergic receptor (Homo sapiens). The note with it: CHO.
Description: Antagonistic potency at human adrenergic alpha2A receptor expressed in CHO cells assessed as forskolin-induced cAMP accumulation
The target in assay [10] is T6, Alpha-2C adrenergic receptor. The experiment in a line: biochemical.
Description: (§2) Displacement of [3H]RX 821002 from human adrenergic Alpha-2C receptor expressed in CHO cells
Assay [11] deals with T4, Alpha-2A adrenergic receptor. Put plainly: Agonistic potency at human adrenergic alpha-2A receptor expressed in CHO cells assessed as forskolin-induced cAMP accumulation.
The target of assay [12] is T5, Alpha-2B adrenergic receptor. The assay is described as §1. Format: functional, cell-based.
For assay [13], the target named is T6, Alpha-2C adrenergic receptor. The experiment in a line: Displacement of [3H]RX 821002 from human adrenergic alpha-2c receptor expressed in CHO cells in presence of GppNHp/Na. It counts as cell-based.
In assay [14] the target is T3, Alpha-2C adrenergic receptor (Homo sapiens). The note with it: CHO.
Description: as §2

`CC(Oc1ccccc1-c1cccc([N+](=O)[O-])c1)C1=NCCN1` (racemic): the result in [1] was inactive. The Intrinsic activity is less than 0.3 in assay [2], less than 0.3 in assay [3] and 0.6 in [4].
With `C[C@H](Oc1ccccc1-c1cccc([N+](=O)[O-])c1)C1=NCCN1`, the Ki is 72.4 nM in assay [5], 1580 nM in assay [6] and 537 nM in [10]. Besides, in assay [7] (read-out: Log EC50 (converted)), the EC50 was 741 nM. Further, the Intrinsic activity in assay [4] was 0.45. The values for the pKb in assay [8] and in assay [9] were 5.93 and 7.35, respectively.
Turning to `C[C@H](Oc1ccccc1-c1ccccc1)C1=NCCN1`, the results for the Ki in [5], in [6] and in [10] were 91.2 nM, 589 nM and 302 nM, respectively. The EC50 in assay [11] was 74.1 nM; in [12], 692 nM; in assay [7] (read-out: Log EC50 (converted)) it was 18.6 nM. For the same compound, the Intrinsic activity in assay [2] was 0.8; in assay [3], 0.65; in assay [4] it was 0.9.
For `CC(Oc1ccccc1-c1cccc(F)c1)C1=NCCN1` (racemic), the result in assay [1] was inactive. Also, the Intrinsic activity is 0.58 in [2], less than 0.3 in assay [3] and 1.15 in [4].
In the case of `Cc1cccc(C(C)c2c[nH]cn2)c1C` (single isomer, unassigned) [DEXMEDETOMIDINE], the Ki in assay [13] is 30.9 nM. Moreover, in [14], the pKiH was determined as 10 and the pKiL is 8.26.
As for `CC(Oc1ccccc1-c1ccccc1)C1=NCCN1` (racemic), the Intrinsic activity came out at 0.7 in assay [2], 0.5 in [3] and 0.8 in assay [4].
On the same counts, the results for `CC(Oc1ccccc1-c1cccnc1)C1=NCCN1` (racemic) are 0.5, 0.5 and 1.
`C[C@@H](Oc1ccccc1-c1cccc([N+](=O)[O-])c1)C1=NCCN1`: the inhibition constant (Ki) was 81.3 nM in [5], 741 nM in [6], 363 nM in assay [13] and 257 nM in assay [10]. Besides, the EC50 in assay [7] (read-out: EC50) is 38 nM; in [7] (read-out: Log EC50 (converted)), 10 nM. Moreover, the Intrinsic activity in [4] came out at 0.8. In addition, the pKb in assay [8] turned out to be 6.07; in assay [9], 7.11. In assay [14], this compound displayed a pKiH of 8.21. Besides, the pKiL in assay [14] amounted to 6.42.
As to `CC(Oc1ccccc1-c1cccc(O)c1)C1=NCCN1` (racemic), the Intrinsic activity in [2] is less than 0.3; in [3], 0.5; in assay [4], 1.15.
Take `C[C@@H](Oc1ccccc1-c1ccccc1)C1=NCCN1`: the values for the Ki in assay [5], in assay [6] and in assay [10] were 186 nM, 1260 nM and 977 nM, respectively. The EC50 in assay [11] was 28800 nM; in assay [12], 100000 nM; in assay [7] (read-out: Log EC50 (converted)), 112 nM. In addition, the results for the Intrinsic activity in assay [2], in assay [3] and in [4] were 0.4, 0.4 and 0.7, respectively.
